Results as given in PMC5805504 (Oncotarget, 2017).
Several values for one entry are separate records, joined by “and”; a condition that tells them apart may be missing. Identical values can stand only once. Like-named read-outs stand apart in the source and are kept apart here.

Assays:
Abl1 = target: T1, Abl1 (Homo sapiens, UniProt P00519); experiment: KINOMEscan kinase competition binding assay (DiscoverX); details: absence of ATP, three-point titration
T1 construct: purchased DiscoverX
From the text: (§1) Data are presented as Geomean ± SD.

ACVR2B = target: T2, ACVR2B (Homo sapiens, UniProt Q13705); experiment: as above; details: absence of ATP, three-point titration
T2 construct: purchased DiscoverX
T2 sequence (Q13705 19-512): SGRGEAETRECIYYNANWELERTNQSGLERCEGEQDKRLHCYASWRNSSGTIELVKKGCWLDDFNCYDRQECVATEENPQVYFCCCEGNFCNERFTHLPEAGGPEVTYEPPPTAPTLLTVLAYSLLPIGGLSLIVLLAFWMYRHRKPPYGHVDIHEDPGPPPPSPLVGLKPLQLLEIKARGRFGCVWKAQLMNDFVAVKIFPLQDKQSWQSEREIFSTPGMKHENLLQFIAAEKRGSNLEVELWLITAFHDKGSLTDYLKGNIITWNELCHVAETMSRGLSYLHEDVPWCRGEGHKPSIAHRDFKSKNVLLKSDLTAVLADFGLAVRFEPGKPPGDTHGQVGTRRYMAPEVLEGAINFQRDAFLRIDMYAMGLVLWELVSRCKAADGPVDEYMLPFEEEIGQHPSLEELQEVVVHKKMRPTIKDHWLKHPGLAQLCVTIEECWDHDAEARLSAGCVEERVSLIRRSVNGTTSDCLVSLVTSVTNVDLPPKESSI
From the text: as §1

BMPR2 = target: T3, BMPR2 (Homo sapiens, UniProt Q13873); experiment: as above; details: absence of ATP, three-point titration
T3 construct: purchased DiscoverX
From the text: as §1

Alk6/BMPR1 = target: T4, Alk6/BMPR1 (Homo sapiens, UniProt O00238); experiment: as above; details: absence of ATP, three-point titration
T4 construct: purchased DiscoverX
T4 sequence (O00238 14-502): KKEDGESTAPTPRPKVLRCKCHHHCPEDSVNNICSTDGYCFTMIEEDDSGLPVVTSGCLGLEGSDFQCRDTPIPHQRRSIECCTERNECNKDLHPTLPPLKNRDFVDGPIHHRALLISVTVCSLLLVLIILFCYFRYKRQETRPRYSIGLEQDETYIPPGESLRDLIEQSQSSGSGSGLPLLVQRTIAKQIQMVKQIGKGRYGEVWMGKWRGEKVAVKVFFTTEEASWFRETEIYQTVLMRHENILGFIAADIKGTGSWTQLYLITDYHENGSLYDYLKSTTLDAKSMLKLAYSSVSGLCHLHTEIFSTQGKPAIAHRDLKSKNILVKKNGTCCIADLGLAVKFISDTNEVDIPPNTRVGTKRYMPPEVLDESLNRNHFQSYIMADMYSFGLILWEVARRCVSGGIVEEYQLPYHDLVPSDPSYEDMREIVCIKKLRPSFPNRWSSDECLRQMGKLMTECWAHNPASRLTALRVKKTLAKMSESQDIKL
From the text: as §1

GAK = target: T5, GAK (Homo sapiens, UniProt O14976); experiment: as above; details: absence of ATP, three-point titration
T5 construct: purchased DiscoverX
From the text: as §1

Alk1/ACVRL1 = target: T6, Alk1/ACVRL1 (Homo sapiens, UniProt P37023); experiment: as above; details: absence of ATP, three-point titration
T6 construct: purchased DiscoverX
T6 sequence (P37023 22-503): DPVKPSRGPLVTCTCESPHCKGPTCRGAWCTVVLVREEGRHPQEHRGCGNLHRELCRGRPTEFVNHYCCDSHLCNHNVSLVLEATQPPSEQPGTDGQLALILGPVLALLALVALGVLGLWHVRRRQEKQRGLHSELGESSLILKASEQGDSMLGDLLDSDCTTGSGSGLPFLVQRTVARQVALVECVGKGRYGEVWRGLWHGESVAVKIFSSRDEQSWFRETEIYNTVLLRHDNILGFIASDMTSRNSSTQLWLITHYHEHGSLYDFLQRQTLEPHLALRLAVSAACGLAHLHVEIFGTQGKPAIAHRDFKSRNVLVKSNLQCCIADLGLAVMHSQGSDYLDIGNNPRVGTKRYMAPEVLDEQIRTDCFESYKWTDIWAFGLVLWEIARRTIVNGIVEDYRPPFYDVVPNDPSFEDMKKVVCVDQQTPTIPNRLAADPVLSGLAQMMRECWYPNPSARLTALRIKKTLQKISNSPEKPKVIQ
From the text: as §1

Alk4/ACVR1B = target: T7, Alk4/ACVR1B (Homo sapiens, UniProt P36896); experiment: as above; details: absence of ATP, three-point titration
T7 construct: purchased DiscoverX
T7 sequence (P36896 24-505): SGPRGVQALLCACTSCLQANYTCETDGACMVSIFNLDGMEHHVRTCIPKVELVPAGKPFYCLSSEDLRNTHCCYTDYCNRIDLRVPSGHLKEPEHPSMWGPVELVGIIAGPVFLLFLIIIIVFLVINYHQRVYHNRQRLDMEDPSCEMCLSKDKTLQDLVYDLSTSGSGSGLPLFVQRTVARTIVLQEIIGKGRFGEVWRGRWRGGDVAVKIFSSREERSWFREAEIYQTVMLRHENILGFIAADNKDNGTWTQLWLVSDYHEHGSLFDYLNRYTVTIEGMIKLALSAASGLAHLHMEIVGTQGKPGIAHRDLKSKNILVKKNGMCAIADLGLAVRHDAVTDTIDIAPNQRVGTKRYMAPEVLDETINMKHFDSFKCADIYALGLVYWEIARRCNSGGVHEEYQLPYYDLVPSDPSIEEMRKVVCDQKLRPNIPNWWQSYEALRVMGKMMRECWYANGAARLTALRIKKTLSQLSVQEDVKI
From the text: as §1

ACVR2A = target: T8, ACVR2A (Homo sapiens, UniProt P27037); experiment: as above; details: absence of ATP, three-point titration
T8 construct: purchased DiscoverX
T8 sequence (P27037 20-513): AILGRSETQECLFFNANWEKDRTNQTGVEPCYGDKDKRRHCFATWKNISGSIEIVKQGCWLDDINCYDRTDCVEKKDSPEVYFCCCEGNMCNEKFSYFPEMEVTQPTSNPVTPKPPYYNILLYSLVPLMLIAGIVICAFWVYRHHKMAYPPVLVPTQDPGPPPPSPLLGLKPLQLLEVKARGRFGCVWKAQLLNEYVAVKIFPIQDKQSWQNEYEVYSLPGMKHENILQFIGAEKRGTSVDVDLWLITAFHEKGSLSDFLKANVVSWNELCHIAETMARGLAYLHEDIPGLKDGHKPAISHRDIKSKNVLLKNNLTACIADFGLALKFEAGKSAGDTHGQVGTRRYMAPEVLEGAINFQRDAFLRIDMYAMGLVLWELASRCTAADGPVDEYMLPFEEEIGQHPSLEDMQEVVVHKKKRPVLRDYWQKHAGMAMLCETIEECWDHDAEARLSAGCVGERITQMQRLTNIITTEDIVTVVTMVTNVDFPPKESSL
From the text: as §1

ZAK = target: T9, ZAK (Homo sapiens, UniProt Q9NYL2); experiment: as above; details: absence of ATP, three-point titration
T9 construct: purchased DiscoverX
From the text: as §1

RIPK2 = target: T10, RIPK2 (Homo sapiens, UniProt O43353); experiment: as above; details: absence of ATP, three-point titration
T10 construct: purchased DiscoverX
From the text: as §1

Alk3/BMPR1A = target: T11, Alk3/BMPR1A (Homo sapiens, UniProt P36894); experiment: as above; details: absence of ATP, three-point titration
T11 construct: purchased DiscoverX
T11 sequence (P36894 24-532): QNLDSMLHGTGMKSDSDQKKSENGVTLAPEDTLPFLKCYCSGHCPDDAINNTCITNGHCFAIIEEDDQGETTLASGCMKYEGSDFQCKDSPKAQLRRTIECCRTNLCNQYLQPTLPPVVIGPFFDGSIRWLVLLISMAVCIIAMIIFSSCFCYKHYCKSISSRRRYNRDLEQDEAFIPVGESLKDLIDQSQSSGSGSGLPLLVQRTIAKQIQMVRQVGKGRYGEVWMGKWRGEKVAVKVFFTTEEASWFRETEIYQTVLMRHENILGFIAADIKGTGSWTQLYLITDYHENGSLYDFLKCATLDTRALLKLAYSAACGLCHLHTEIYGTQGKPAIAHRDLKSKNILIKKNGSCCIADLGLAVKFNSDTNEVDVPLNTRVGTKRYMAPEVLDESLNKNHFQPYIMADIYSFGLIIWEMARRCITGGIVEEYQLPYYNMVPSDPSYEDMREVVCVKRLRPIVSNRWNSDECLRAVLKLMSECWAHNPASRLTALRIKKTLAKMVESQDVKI
From the text: as §1

Alk2/ACVR1 = target: T12, Alk2/ACVR1 (Homo sapiens, UniProt Q04771); experiment: as above; details: absence of ATP, three-point titration
T12 construct: purchased DiscoverX
T12 sequence (Q04771 21-509): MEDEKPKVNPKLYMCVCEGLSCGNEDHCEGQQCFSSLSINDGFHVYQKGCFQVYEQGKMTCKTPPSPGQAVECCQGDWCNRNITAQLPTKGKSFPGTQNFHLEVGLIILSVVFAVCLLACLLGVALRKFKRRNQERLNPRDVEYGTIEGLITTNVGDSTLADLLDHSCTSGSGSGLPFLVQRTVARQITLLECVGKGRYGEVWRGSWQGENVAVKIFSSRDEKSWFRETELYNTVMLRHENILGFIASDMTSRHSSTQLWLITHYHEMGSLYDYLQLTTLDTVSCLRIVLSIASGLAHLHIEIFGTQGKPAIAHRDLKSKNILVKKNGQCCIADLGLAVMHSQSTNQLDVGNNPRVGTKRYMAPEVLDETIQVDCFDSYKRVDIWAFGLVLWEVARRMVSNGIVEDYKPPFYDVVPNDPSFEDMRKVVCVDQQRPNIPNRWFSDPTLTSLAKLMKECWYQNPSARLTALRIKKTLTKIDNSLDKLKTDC
From the text: as §1

MINK = target: T13, MINK (Homo sapiens, UniProt Q8N4C8); experiment: as above; details: absence of ATP, three-point titration
T13 construct: purchased DiscoverX
From the text: as §1

NLK = target: T14, NLK (Homo sapiens, UniProt Q9UBE8); experiment: as above; details: absence of ATP, three-point titration
T14 construct: purchased DiscoverX
T14 sequence (Q9UBE8 whole entry): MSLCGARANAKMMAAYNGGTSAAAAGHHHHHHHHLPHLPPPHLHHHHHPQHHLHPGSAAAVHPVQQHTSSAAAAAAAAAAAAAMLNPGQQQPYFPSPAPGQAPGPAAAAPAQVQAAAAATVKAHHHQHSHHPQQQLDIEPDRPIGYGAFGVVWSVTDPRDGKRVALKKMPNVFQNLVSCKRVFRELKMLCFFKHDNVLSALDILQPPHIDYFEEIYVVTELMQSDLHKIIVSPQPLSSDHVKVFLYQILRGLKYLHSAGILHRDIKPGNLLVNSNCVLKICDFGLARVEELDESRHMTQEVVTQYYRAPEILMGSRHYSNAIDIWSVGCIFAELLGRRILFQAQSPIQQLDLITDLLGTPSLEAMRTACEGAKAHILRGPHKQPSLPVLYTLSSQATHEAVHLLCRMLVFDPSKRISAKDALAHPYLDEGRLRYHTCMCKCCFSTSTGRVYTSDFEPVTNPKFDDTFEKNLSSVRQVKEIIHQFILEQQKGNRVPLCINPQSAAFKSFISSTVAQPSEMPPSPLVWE
From the text: as §1

RSK4 = RSK4 (Homo sapiens, UniProt Q9UK32); experiment: as above; details: absence of ATP, three-point titration
RSK4, sequence (Q9UK32 73-330): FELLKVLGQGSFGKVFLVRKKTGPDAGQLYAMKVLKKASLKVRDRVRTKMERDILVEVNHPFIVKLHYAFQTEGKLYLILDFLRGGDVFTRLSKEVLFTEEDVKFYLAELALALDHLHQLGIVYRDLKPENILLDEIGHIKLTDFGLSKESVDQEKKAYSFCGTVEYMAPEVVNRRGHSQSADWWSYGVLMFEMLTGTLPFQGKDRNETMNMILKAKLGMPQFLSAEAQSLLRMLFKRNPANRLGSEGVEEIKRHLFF
From the text: as §1

TGFβRII = TGFβRII (Homo sapiens, UniProt P37173); experiment: Confirmatory TGFβRII binding assay
TGFβRII, sequence (P37173 23-567): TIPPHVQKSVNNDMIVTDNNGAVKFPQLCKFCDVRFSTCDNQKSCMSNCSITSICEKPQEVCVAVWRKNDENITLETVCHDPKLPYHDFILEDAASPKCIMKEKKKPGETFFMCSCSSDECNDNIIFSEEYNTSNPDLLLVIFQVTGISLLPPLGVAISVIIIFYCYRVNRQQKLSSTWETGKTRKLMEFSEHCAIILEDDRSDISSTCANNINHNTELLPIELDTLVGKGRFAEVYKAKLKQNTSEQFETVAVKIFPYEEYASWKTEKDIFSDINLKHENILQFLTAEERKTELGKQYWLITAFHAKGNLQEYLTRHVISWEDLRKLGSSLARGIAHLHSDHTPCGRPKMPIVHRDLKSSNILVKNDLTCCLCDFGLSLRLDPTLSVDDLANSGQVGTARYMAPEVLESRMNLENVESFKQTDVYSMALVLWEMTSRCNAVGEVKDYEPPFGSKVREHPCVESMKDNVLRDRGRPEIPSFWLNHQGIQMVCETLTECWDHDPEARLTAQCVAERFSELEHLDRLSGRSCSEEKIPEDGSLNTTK

[1] = system: TGFβ-responsive p3TP-Lux reporter in Mv1Lu cells; experiment: Mink lung epithelial cell p3TP-Lux reporter assay; format: cell-based; details: TGFβ1-mediated luciferase production, read-out: IC50 (SE), Mv1Lu p3TP-Lux
Method: The TGFβ-responsive p3TP-Lux reporter construct was stably expressed in Mv1Lu mink lung epithelial cells. […] Media was replaced with 0.5% FBS/DMEM and incubated at 37C/5% CO2 for 2 hours. […] The following day, cells were washed with PBS and lysed with lysis buffer by incubating for 20 to 30 minutes at room temperature. Counts were taken on the MicroBeta JET by injecting 50 μL Luciferase Assay Reagent II (PROMEGA), delay for 1 second and count for 5 seconds. Curve fitting utilized a 4-parameter logistic model and absolute IC50 values were reported.

pSMAD in 4T1-LP cells = experiment: TGFβ1-induced pSMAD inhibition in 4T1-LP cells (ELISA)
Method: Next, the samples were homogenized for 15 seconds using Bioruptor® UCD-200 by Diagenode at medium power.
Total and pSMAD2/3 levels were assessed independently on two separate ELISA plates. […] To the pSMAD ELISA plate, 100 μL per well of lysate (ranging from 0.04-0.1 mg total protein) was added to the appropriate wells. To the total SMAD ELISA plate, 10% of the total protein that was added to the pSMAD, was added to the appropriate wells (0.004-0.01 mg protein final). A standard curve was also added to both ELISA plates (p- and tSMAD plates) using recombinant HIS-pSMAD2 protein (Eli Lilly and Company). Plates were incubated overnight then washed four times with wash buffer. […] Following one hour of incubation, plates were washed and developed using 3, 3’, 5, 5’-tetramethylbenzidine substrate (TMB; Surmodics/BioFX #TMBW-0100-01) and absorbance (OD) was read at 450 nm on a plate reader.
Percent inhibition of normalized pSMAD2 levels was calculated by first determining the ratio of tSMAD to pSMAD values for the vehicle group. […]

in vivo = details: female, athymic nu/nu, mouse, plasma, po, 75 mg/kg
Method: For in vivo measurement of tumor cell pSMAD activity, tumors were harvested from mice at the indicated time points post-treatment, snap frozen in liquid nitrogen, then pulverized in lysis buffer [EDTA 5 mM, EGTA 5 mM, sodium pyrophosphate 30 mM, sodium chloride 6.7 mM, sodium fluoride 50 mM, and 1% triton in water, pH 7.4 with protease and phosphatase inhibitors (Sigma, p8340, p5726, p0044) and sodium orthovanadate 2.5 mM]. Protein concentration was estimated with DC protein assay kit (BioRad).
Percent inhibition of normalized pSMAD2 levels was calculated by first determining the ratio of tSMAD to pSMAD values for the vehicle group. […] Percent inhibition for compound treated groups was determined relative to the minimum pSMAD inhibition of the vehicle group using the formula: [(100- (normalized pSMAD in the experimental treatment group/normalized pSMAD in the vehicle treated group)]. IC50 of pSMAD inhibition was calculated for the data using non-linear regression to fit the standard four parameter logistic model using GraphPad Prism 6.
Female athymic nu/nu mice or immune competent syngenic BALB/c mice (Charles River or Taconic Farms, respectively, 22 to 28 grams) were maintained in microisolator cages, received food and water ad libitum, and were quarantined for 1 week before experimental manipulation. Sub-confluent Calu6 human non-small cell lung cancer (NSCLC) cells were injected subcutaneously in the flank of nude mice (1x 10^7cells/per animal) in 0.2 mL of culture medium mixed with Matrigel (BD Biosciences, 1:1 v/v). EMT6-LM2 murine triple negative breast cancer tumor cells (5 × 10^5 cells/per animal in the absence of matrigel) were implanted on the flank of BALB/c mice. EMT6-LM2 cells were generated from parental EMT6 cells which were passaged twice from spontaneous lung metastases (LM) following subcutaneous growth. When the tumor volume reached ~250 mm^3, mice were randomized and separated into treatment groups.
Tumors and plasma were collected 2 hours post dosage for analysis of pSMAD and compound levels.
Tumors and plasma were collected at the indicated time points (0.5, 1, 1.5, 2, 4, 8, and 16 hours) for analysis of pSMAD and compound levels.
Percent target inhibition was calculated as described above then was modeled as a function of either dose or plasma concentration.

[2] = system: murine NK and CD8+ T cells; experiment: TGFβ suppression of murine NK and CD8+ T cell cytokine secretion; format: cell-based, BALB/c mice; details: TGFβ1 10 ng/ml, 0.1 μM to 10 μM, ELISA
Method: Mouse NK cells and CD8^+ T cells were purified from female BALB/C mouse splenocytes by magnetic antibody sorting (Miltenyi Biotec) following the manufacturer's instructions. After isolation, the cells were re-suspended separately in complete media (RPMI1640, 5% FBS, 10 mM HEPES, 1×NEAA, 1×L-Glu, sodium pyruvate, 1×Penn/Strep, 0.055 mM βME, 50 U/ml IL2) and plated in flat 96-well plates at 37°C for 5-7 days at a density of 5 × 10^4/well, in triplicate, and stimulated with Treg Suppression Inspector beads (Miltenyi Biotec, Cat# 130-093-627). Cells were cultured with or without TGFβ1 at 10 ng/ml. […] Cytokine release in supernatants was measured by ELISA (R&D, mouse Granzyme B: DY1865; mouse INFγ:3321-1H-6). One-way ANOVA with Dunnett's test was used to compare the TGFβ+Gal treatments to the TGFβ+DMSO treatment.

pSMAD in PBMC = experiment: 13762 rat tumor model, ex vivo stimulated PBMC pSMAD; format: in vivo, Fischer 344 rats; details: Table 4, read-out: IC50 of pSMAD (%CV)
Method: Fischer 344 rats from Taconic Farms weighing 150 to 160 grams were acclimatized for 1 week prior to study initiation and had ad libitum access to food. Rats were shaved in the implant area then given a subcutaneous flank injection of 5 × 10^6 13762 rat mammary carcinoma cells in a 1:1 (v/v) mixture with Matrigel in media. […] Tumor, PBMCs, and plasma were collected at 0.5, 1, 1.5, 2, 4, 8, 16, and 24 hours for further analysis.
Ex vivo stimulation and assessment of target modulation in PBMCs have been described in detail previously. Briefly, whole blood (2 to 3 mL) was collected by cardiac puncture from Fischer 344 rats and transferred to BD Vacutainer CPT sodium citrate tubes. PBMCs isolated from whole blood were stimulated with TGFβ1 at a final concentration of 100 pM at 37°C for one hour. Cells were washed with cold PBS and lysed in 50-100 μL of lysis buffer, and pSMAD and tSMAD levels were assessed by immunoblot assay as described above.
For correlation of pSMAD modulation in 13762 rat mammary carcinoma tumors and PBMCs, data were normalized using an analysis of co-variance of log pSMAD versus log tSMAD and treatment group. The slope (b) from this analysis was used to normalize the pSMAD values using pSMAD/(tSMAD)^b. Percent inhibition was calculated by the following formula: 100-(y/x)*100 where y = normalized pSMAD value and x = mean normalized pSMAD in the vehicle control. […]

[3] = system: TGFβ ligand (SMAD2/3-responsive promoter); experiment: Cell based luciferase reporter assay (SMAD2/3), TGFβ-stimulated HEK293_SMAD2/3 cells; details: Homo sapiens; TGFβ1 2 nM stimulated HEK293_SMAD2/3

For `Cc1cccc(-c2nn3c(c2-c2ccnc4ccc(C(N)=O)cc24)CCC3)n1.O` [galunisertib, 4-[2-(6-methylpyridin-2-yl)-5,6-dihydro-4H-pyrrolo[1,2-b]pyrazol-3-yl]quinoline-6-carboxamide monohydrate], the IC50 (Abl1) was 860 nM, the IC50 (ACVR2B) was 690 nM and 694 nM and the IC50 (BMPR2) was > 60000 nM. It also gave an IC50 (Alk6/BMPR1) of 470 nM, an IC50 (Alk6/BMPR1; listed as Galunisertib) of 471 nM and an IC50 (GAK) of 310 nM. For the same compound, the IC50 (Alk1/ACVRL1) was > 20000 nM, the IC50 (Alk4/ACVR1B) was 80 nM and the IC50 (Alk4/ACVR1B; listed as Galunisertib) was 77.7 nM. For the same compound, the IC50 (ACVR2A) was > 20000 nM, the IC50 (ZAK) was 860 nM and the IC50 (RIPK2) was 220 nM. For the same compound, the IC50 (Alk3/BMPR1A) was 16800 nM, the IC50 (Alk2/ACVR1) was > 20000 nM and the IC50 (MINK) was 190 nM. It also gave an IC50 (NLK) of 910 nM, an IC50 (RSK4) of 720 nM and an IC50 (TGFβRII) of 430 nM. The IC50 ([1]; Mv1Lu) was 251 nM, the IC50 [1] was 250 nM and the IC50 (pSMAD in 4T1-LP cells; Mus musculus, read-out: IC50, pSMAD activity, 4T1-LP, TGFβ1 10 ng/ml, ELISA) was 1760 nM. For the same compound, the IC50 (pSMAD in 4T1-LP cells; read-out: IC50, pSMAD activity, 4T1-LP, TGFβ1 10 ng/ml, ELISA) was 1770 nM, the Tmax (in vivo) was 30 min and the “TGFβ1 suppression of IFNγ and granzyme B secretion” value [2] was “prevented the suppression of IFNγ and granzyme B secretion”. The IC50 (pSMAD in PBMC) was 1960 nM and the IC50 [3] was 221 nM.
